# From patent US20240293314A1, “COMPOSITION FOR PARTICLE-MEDIATED TRANSPORT OF A DISSOLVED ACTIVE AGENT INTO HAIR FOLLICLES” (Charité – Universitätmedizin Berlin, priority 2021, published 2024)
# What was measured:
# [1] = assay type: in vitro ADME
# Excerpt: FIG. 1: Confocal microscopic image of a skin section with hair follicle after topical application of fluorescein natrium salt (green fluorescent dye) dissolved in dispersion medium together with a caffeine nanosuspension.
# Particle-containing formulations were applied as dispersions (particles in a liquid or semi-solid dispersion medium). Besides the particles, the dispersion medium also contained dissolved molecules, name the fluorescent molecule fluorescein, which is an organic compound soluble in water and alcohol.
# [2] = assay type: in vitro ADME, porcine; conditions: pig, 1 h, 0.003 % w/w
# Method: Three particle-free and three particle-containing formulations were prepared, each containing 0.003% F (dissolved in dispersion medium), and the penetration of F into hair follicles (HF) was studied.
# Fluorescein (0.003% w/w) was added to dispersion media that contained no particles (water, TPGS-solution (1% w/w) or ethanol (96% v/v)) and was added to dispersion media that contained particles (1. curcumin nanocrystals (5% w/w dispersed in TPGS solution (1% w/w)—particle size was 257 nm, polydispersity index 0.26 determined by photon correlation spectroscopy); 2. quercetin nanocrystals (5% w/w dispersed in TPGS solution (1% w/w)—particle size was 580 nm, polydispersity index 0.36, determined by photon correlation spectroscopy); 3. Lipid nanoparticles (10% w/w dispersed in TPGS solution (1% w/w)—particle size was 195 nm, polydispersity index 0.09, determined by photon correlation spectroscopy).
# The formulations (50 μl on a skin areal of 4 cm^2) were applied on fresh porcine ears (ventral side, massage for 60 s, penetration time 1 h at 32° C.). Skin biopsies (Ø 15 mm) were obtained from the treated skin areas from which skin sections (40 μm, 100 sections/biopsy) were prepared. The skin sections and the hair follicle sections were analyzed by epifluorescence microscopy. Images were taken and the penetration depth of the fluorescein was directly measured (n=3). […]
smiles,measurement,setting,value
"O=C1OC2(c3ccc(O)cc3Oc3cc(O)ccc32)c2ccccc21 [F, Fluorescein]",penetration into the hair follicles,[1],no efficient penetration into the hair follicles
same,penetration depth with particles compared to the particle-free formulations,[2],> 160%
